B1: SEK1 (K54R): dominant negative mutant of SEK1, known to specifically block JNK activation; expressed from a vector (protein, UniProt P45985 2-399, looked up, variant K54R)
Dual specificity …: AAPSPSGGGGSGGGSGSGTPGPVGSPAPGHPAVSSMQGKRKALKLNFANPPFRSTARFTLNPNPTGVQNPHIERLRTHSIESSGKLKISPEQHWDFTAEDLKDLGEIGRGAYGSVNKMVHKPSGQIMAVKRIRSTVDEKEQKQLLMDLDVVMRSSDCPYIVQFYGALFREGDCWICMELMSTSFDKFYKYVYSVLDDVIPEEILGKITLATVKALNHLKENLKIIHRDIKPSNILLDRSGNIKLCDFGISGQLVDSIAKTRDAGCRPYMAPERIDPSASRQGYDVRSDVWSLGITLYELATGRFPYPKWNSVFDQLTQVVKGDPPQLSNSEEREFSPSFINFVNLCLTKDESKRPKYKELLKHPFILMYEERAVEVACYVCKILDQMPATPSSPMYVD
modifications: expressed from vector; dominant negative

Assays:
HN33 cells [1] = settings: for induction of apoptotic cell death of HN33 cells: glutamate 250 μM or kainic acid 200 μM
JNK = JNK activity in HN33 cell lysates (GST-c-Jun phosphorylation, Western blot); assay type: cell-based, rat; settings: glutamate 250 μM or kainic acid 200 μM, room temperature, 15 minutes
NMDA receptor = settings: rats given glutamate, quinolinic acid or kainic acid; cited from earlier work
HN33 cells [2] = assay: TUNEL assay of apoptosis induced by expression of APP-C-100 in HN33 cells; assay type: cell-based, rat; settings: 48 hours after transfection
Description: To determine the role of activation of the SEK1-JNK signal transduction pathway in Alzheimer's diseases, a cDNA fragment encoding the full-length (Kang, J., et al., Nature, 325:733-736 (1987)) or the last C-terminal 100 amino acid of amyloid precursor protein (APP) was inserted into pcDNA1 and the resulting plasmid was designated as APP-C-100. HN33 cells (60% of confluence) was transfected with pcDNA1 (control), wild-type APP, APP-C-100 by using lipofectin (Boehringer Mannheim) according to manufacture instruction. Thirty μl of lipofectin/50 mm plate was used in all transfection experiments. Twelve to seventy-two hours after transfection, HN33 cells were fixed with 4% paraformaldehyde and permeabilized with 0.1% of Triton X-100. […] TUNEL negative cells were counted under light microscope.
To further determine the role of activation of the JNK activation in Alzheimer's diseases, HN33 cells were transfected with pcDNA1, wild-type APP expression vector, or mutant SEK1 expression vector using lipofectin (Boehringer Mannheim) according to manufacture instruction. […] TUNEL negative cells (living cells) were counted.
To determine further the role of activation of the MLK activation in Alzheimer's diseases, HN33 cells were co-transfected with pcDNA1, wild-type expression vector, with kinase dead MLK2 expression vector. […] TUNEL negative cells (living cells) were counted.

HN33 cells [3] = assay: TUNEL assay of apoptosis induced by expression of MLK2 in HN33 cells; assay type: cell-based, rat; settings: co-transfection with wild-type MLK2; 48 hours after transfection
Description: To examine whether expression of MLK2 induces neuronal cell death, HN33 cells were transfected with pRK5CMV, wild-type or kinase dead MLK2 expression vector using lipofectin (Boehringer Mannheim) according to manufacture instruction. Forty-eight hours after transfection, cells were fixed and stained with TUNEL, as described above. TUNEL negative cells (living cells) were counted.
To determine whether the role of the SEK1-JNK signal transduction pathway in neuronal cell death induced by expression of MLK2, HN33 cells were co-transfected with pEBG+pRK5CMV (control), wild-type SEK1 expression vector+wild-type MLK2 expression vector, or dominant negative mutant SEK1 (K54R) expression vector+wild-type MLK2 expression vector. Forty-eight hours after transfection, cells were fixed and stained with TUNEL. TUNEL negative cells (living cells) were counted.

Row | Molecule | induction of apoptotic cell death of HN33 cells (HN33 cells [1]) | JNK activity (JNK) | also measured
1 | C=C(C)[C@H]1CN[C@H](C(=O)O)[C@H]1CC(=O)O [kainic acid] | apoptotic cell death | induced elevation of the JNK activity | –
2 | C[C@]12N[C@H](Cc3ccccc31)c1ccccc12 [MK-801] | – | – | induction of c-Jun expression and neuronal apoptosis (NMDA receptor): blocked
3 | N[C@@H](CCC(=O)O)C(=O)O [glutamate] | apoptotic cell death | induced elevation of the JNK activity | –
4 | B1 | – | – | apoptosis induced by glutamate or kainate receptor activation, effect of expression (HN33 cells [1]; 250 μM glutamate or 200 μM kainate for six hours, 48 hours after transfection): blocks; apoptosis induced by expression of APP-C-100, effect of co-expression (HN33 cells [2]): blocks; apoptosis induced by MLK expression, effect of co-expression (HN33 cells [3]): attenuated

Reference: US7544479B2, “Method for identifying MLK inhibitors for treatment of neurological conditions” (priority 1998, dated 2009)
